Reference: ChEMBL document CHEMBL1201862, “PubChem BioAssay data set” (2004)
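Briefly, cells in 96-well plates were exposed to five compound concentrations for 48 h, and endpoints were estimated by linear interpolation. Here, GI50 denotes the concentration required for 50% inhibition of growth.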 Active and inactive are the calls of the source. Rule as the data show it: active = GI50 up to about 1.1 µM and inactive = higher.

Experiments:
Assay in all cases: DTP human tumour cell line panel, 48 h
HOP-92 = test system: HOP-92
SNB-19 = test system: SNB-19
SK-MEL-28 = test system: SK-MEL-28
DU-145 = test system: DU-145
SN12C = test system: SN12C
NCI-H522 = test system: NCI-H522
K562 = test system: K562
A549 = test system: A549
BT-549 = test system: BT-549
M14 = test system: M14
CCRF-CEM = test system: CCRF-CEM
HT-29 = test system: HT-29
RXF 393 = test system: RXF 393
SW-620 = test system: SW-620
786-0 = test system: 786-0
MDA-N = test system: MDA-N
OVCAR-4 = test system: OVCAR-4
SNB-75 = test system: SNB-75
SF-539 = test system: SF-539
UACC-62 = test system: UACC-62
MDA-MB-231 = test system: MDA-MB-231
KM12 = test system: KM12
PC-3 = test system: PC-3
HL-60 = test system: HL-60
TK-10 = test system: TK-10
A498 = test system: A498
SF-268 = test system: SF-268
SR = test system: SR
OVCAR-3 = test system: OVCAR-3
NCI/ADR-RES = test system: NCI/ADR-RES
Malme-3M = test system: Malme-3M
LOX IMVI = test system: LOX IMVI
U-251 = test system: U-251
HCT-116 = test system: HCT-116
SF-295 = test system: SF-295
COLO 205 = test system: COLO 205
NCI-H226 = test system: NCI-H226
UO-31 = test system: UO-31
OVCAR-5 = test system: OVCAR-5
UACC-257 = test system: UACC-257
ACHN = test system: ACHN
CAKI-1 = test system: CAKI-1
MOLT-4 = test system: MOLT-4
MDA-MB-435 = test system: MDA-MB-435
SK-OV-3 = test system: SK-OV-3
MCF7 = test system: MCF7
NCI-H23 = test system: NCI-H23
OVCAR-8 = test system: OVCAR-8
HCT-15 = test system: HCT-15
Hs-578T = test system: Hs-578T
EKVX = test system: EKVX
SK-MEL-5 = test system: SK-MEL-5
SK-MEL-2 = test system: SK-MEL-2
IGROV-1 = test system: IGROV-1
NCI-H460 = test system: NCI-H460
HOP-62 = test system: HOP-62
HCC 2998 = test system: HCC 2998
T47D = test system: T47D
RPMI-8226 = test system: RPMI-8226

Compound: Cc1ccccc1OC(C)C(=O)NN1C(=O)CC(=O)N(c2ccc(Cl)cc2)C1=S (stereo not drawn)
- GI50 (HOP-92): 19.3 µM (inactive)
- GI50 (SNB-19): 61.1 µM (inactive)
- GI50 (SK-MEL-28): 41.4 µM (inactive)
- GI50 (DU-145): 36.1 µM (inactive)
- GI50 (SN12C): 34.3 µM (inactive)
- GI50 (NCI-H522): 32.3 µM (inactive)
- GI50 (K562): 38.6 µM (inactive)
- GI50 (A549): 43.9 µM (inactive)
- GI50 (BT-549): 37.2 µM (inactive)
- GI50 (M14): 44.8 µM (inactive)
- GI50 (CCRF-CEM): 19.3 µM (inactive)
- GI50 (HT-29): 39.5 µM (inactive)
- GI50 (RXF 393): 25 µM (inactive)
- GI50 (SW-620): 36.2 µM (inactive)
- GI50 (786-0): 34 µM (inactive)
- GI50 (MDA-N): 32.1 µM (inactive)
- GI50 (OVCAR-4): 38.5 µM (inactive)
- GI50 (SNB-75): 35 µM (inactive)
- GI50 (SF-539): 46.1 µM (inactive)
- GI50 (UACC-62): 27.9 µM (inactive)
- GI50 (MDA-MB-231): 26 µM (inactive)
- GI50 (KM12): 36.3 µM (inactive)
- GI50 (PC-3): 31.9 µM (inactive)
- GI50 (HL-60): 13.4 µM (inactive)
- GI50 (TK-10): 44 µM (inactive)
- GI50 (A498): 20.7 µM (inactive)
- GI50 (SF-268): 50.9 µM (inactive)
- GI50 (SR): 26 µM (inactive)
- GI50 (OVCAR-3): 37.1 µM (inactive)
- GI50 (NCI/ADR-RES): 29.4 µM (inactive)
- GI50 (Malme-3M): 48.2 µM (inactive)
- GI50 (LOX IMVI): 29 µM (inactive)
- GI50 (U-251): 34.1 µM (inactive)
- GI50 (HCT-116): 22.2 µM (inactive)
- GI50 (SF-295): 36.8 µM (inactive)
- GI50 (COLO 205): 23.3 µM (inactive)
- GI50 (NCI-H226): 31.5 µM (inactive)
- GI50 (UO-31): 41 µM (inactive)
- GI50 (OVCAR-5): 61.2 µM (inactive)
- GI50 (UACC-257): 30 µM (inactive)
- GI50 (ACHN): 33.8 µM (inactive)
- GI50 (CAKI-1): 37.8 µM (inactive)
- GI50 (MOLT-4): 30.5 µM (inactive)
- GI50 (MDA-MB-435): 49.3 µM (inactive)
- GI50 (SK-OV-3): 48.2 µM (inactive)
- GI50 (MCF7): 31.3 µM (inactive)
- GI50 (NCI-H23): 31 µM (inactive)
- GI50 (OVCAR-8): 34.1 µM (inactive)
- GI50 (HCT-15): 30.1 µM
- GI50 (Hs-578T): 63.2 µM (inactive)
- GI50 (EKVX): 41.7 µM (inactive)
- GI50 (SK-MEL-5): 25.1 µM (inactive)
- GI50 (SK-MEL-2): 27.8 µM (inactive)
- GI50 (IGROV-1): 49.9 µM (inactive)
- GI50 (NCI-H460): 31 µM (inactive)
- GI50 (HOP-62): 47.9 µM (inactive)
- GI50 (HCC 2998): 27.4 µM (inactive)
- GI50 (T47D): 34.6 µM (inactive)
- GI50 (RPMI-8226): 34.4 µM (inactive)

Compound: C[C@H]1COC2=C1C(=O)C(=O)c1c2ccc2c1CCCC2(C)C [CRYPTOTANSHINONE]
- GI50 (HOP-92): 40.8 µM (inactive)
- GI50 (SNB-19): 2.52 µM (inactive)
- GI50 (SK-MEL-28): 3.19 µM (inactive)
- GI50 (DU-145): 1.35 µM (inactive)
- GI50 (SN12C): 4.37 µM (inactive)
- GI50 (NCI-H522): 2.01 µM (inactive)
- GI50 (K562): 3.61 µM (inactive)
- GI50 (A549): 1.05 µM (active)
- GI50 (BT-549): 2.11 µM (inactive)
- GI50 (M14): 1.03 µM (active)
- GI50 (CCRF-CEM): 4.31 µM (inactive)
- GI50 (HT-29): 2.18 µM (inactive)
- GI50 (RXF 393): 6.3 µM (inactive)
- GI50 (SW-620): 1.73 µM (inactive)
- GI50 (786-0): 3.42 µM (inactive)
- GI50 (MDA-N): 1.61 µM (inactive)
- GI50 (OVCAR-4): 12.2 µM (inactive)
- GI50 (SNB-75): 0.881 µM (active)
- GI50 (SF-539): 3.35 µM (inactive)
- GI50 (UACC-62): 2.03 µM (inactive)
- GI50 (MDA-MB-231): 12 µM (inactive)
- GI50 (KM12): 2.19 µM (inactive)
- GI50 (PC-3): 4.93 µM (inactive)
- GI50 (HL-60): 2.39 µM (inactive)
- GI50 (TK-10): 8.18 µM (inactive)
- GI50 (A498): 18.3 µM (inactive)
- GI50 (SF-268): 1.9 µM (inactive)
- GI50 (SR): 3.42 µM (inactive)
- GI50 (OVCAR-3): 0.326 µM (active)
- GI50 (NCI/ADR-RES): 2.79 µM (inactive)
- GI50 (Malme-3M): 0.305 µM (active)
- GI50 (LOX IMVI): 2.52 µM (inactive)
- GI50 (U-251): 2 µM (inactive)
- GI50 (HCT-116): 2.96 µM (inactive)
- GI50 (SF-295): 1.68 µM (inactive)
- GI50 (COLO 205): 1.15 µM (inactive)
- GI50 (NCI-H226): 3.24 µM (inactive)
- GI50 (UO-31): 4.7 µM (inactive)
- GI50 (OVCAR-5): 16.1 µM (inactive)
- GI50 (UACC-257): 1.95 µM (inactive)
- GI50 (ACHN): 3.6 µM (inactive)
- GI50 (CAKI-1): 8.22 µM (inactive)
- GI50 (MOLT-4): 4.24 µM (inactive)
- GI50 (MDA-MB-435): 1.42 µM (inactive)
- GI50 (SK-OV-3): 11.6 µM (inactive)
- GI50 (MCF7): 2.22 µM (inactive)
- GI50 (NCI-H23): 1.55 µM (inactive)
- GI50 (OVCAR-8): 2.58 µM (inactive)
- GI50 (HCT-15): 1.94 µM
- GI50 (Hs-578T): 2.29 µM (inactive)
- GI50 (EKVX): 4.62 µM (inactive)
- GI50 (SK-MEL-5): 0.382 µM (active)
- GI50 (SK-MEL-2): 4.25 µM (inactive)
- GI50 (IGROV-1): 2.71 µM (inactive)
- GI50 (NCI-H460): 1.63 µM (inactive)
- GI50 (HOP-62): 3.68 µM (inactive)
- GI50 (HCC 2998): 2.48 µM (inactive)
- GI50 (T47D): 9.46 µM (inactive)
- GI50 (RPMI-8226): 3.31 µM (inactive)
